Reference: patent publication US8323673B2, “Concentrated, non-foaming solution of quaternary ammonium compounds and methods of use” (University of Arkansas, priority 1996, dated 2012)

Experiments:
Escherichia coli O157:H7 [1] = system: Escherichia coli O157:H7
Escherichia coli O157:H7 [2] = system: Escherichia coli O157:H7; remark: listed apart in the source
L. monocytogenes [3] = experiment: Inhibition of attachment of Listeria monocytogenes to chicken skin
Text: The steps of Example 3 were followed except that L. monocytogenes was used to inoculate the chicken skin and the media in the plastic bag used in the Stomacher 400 contained 0.1% peptone.

Campylobacter jejuni = experiment: MBC, macrodilution broth method; format: cell-based; conditions: microaerophilic, 37° C., 48 hours
Method: (§1) Experiments were conducted by microaerophilic incubation at 37° C. for 48 hours. An aliquot of each dilution was pour plated in agar and incubated in microaerophilic conditions at 37° C. for 48 hours. MBCs were determined as the lowest dilution with no growth.

Arcobacter butzleri = experiment: MBC, macrodilution broth method; format: cell-based; conditions: microaerophilic, 37° C., 48 hours
Method: as §1

L. monocytogenes [4] = experiment: Reduction of viable Listeria monocytogenes attached to chicken skin; conditions: CPC 2000 ppm or higher
Text: The steps of Example 2 were followed except that L. monocytogenes was used to inoculate the chicken skin and the media in the plastic bag used in the Stomacher 400 contained 0.1% peptone.

[5] = Ames assay for mutagenicity; format: cell-based
Method: The present invention has an important application in the food processing industry, as well as for home and institutional food preparation. QACs are readily available and the cost of carrying out the method of the present invention is not expensive as compared to existing antimicrobial processes. […] A range of concentrations of QACs are effective in preventing broad spectrum microbial growth on food products. QACs are tested by the Ames assay for mutagenicity.

S. typhimurium [6] = experiment: Spraying whole chicken carcasses with a commercial sprayer; design: species or system Salmonella typhimurium
Method: (§2) These experiments tested the effect that spraying QACs on whole chicken carcasses using a commercial sprayer would have on the reduction of viable bacteria. The bacterial inoculating solutions were made as follows: E. coli (ATTC #25922) was grown in brain heart infusion broth (BHI) for 20-24 h and then diluted to a 1:1000 concentration by adding 0.5 ml of E. coli culture to 500 ml of physiological saline solution (PSS). S. typhimurium was grown in BHI for 20-24 h and then diluted to a 1:5000 concentration by adding 0.1 ml of S. typhimurium culture to 500 ml of physiological saline solution (PSS). […] Prechill chicken carcasses were obtained from a local poultry processing plant for each trial. The carcasses were placed on a shackle line and 1 ml of the bacterial inoculating solution was sprayed on the breast of the carcass, and 1 ml was sprayed on the back. The bacteria were allowed to attach for 30 min at room temperature. After attachment the carcasses were rinsed on the shackle line with tap water for 20 seconds. The carcasses were divided into groups of ten. […] In the S. typhimurium tests, there was also a group that was not sprayed after inoculation to evaluate the effect of the spray.
(§3) For all of the bacteria, one group of carcasses were treated with the Johnson™ washer for 20 seconds at 60 psi with 35 cups of tap water. After the rinse, the carcasses were allowed to set for 90 seconds, and then rinsed with 20 cups of tap water for 20 seconds at 80 psi. This rinse cycle was repeated either two or three times. The interval of each rinse was also 90 seconds. […] This rinse cycle was repeated either two or three times.
(§4) After treatment the carcasses were placed in plastic bags and 100 ml of 0.1% buffered peptone water (BPW) was added to each bag. The bags were mechanically shaken and the rinse collected for most probable number (MPN) technique. Petrifilm™ was also employed for evaluation of total aerobic plate counts (TPC). Preexisting (not inoculated) C. jejuni was enumerated by the MPN technique and E. coli by Petrifilm™.

S. typhimurium [7] = experiment: Concentration and time study: reduction of viable S. typhimurium on chicken skin; design: species or system Salmonella typhimurium; conditions: CPC 4000 and 8000 ppm in 5% glycerin-PBS, contact times as low as 3 min
Method: CPC in the glycerin-PBS mixture. […] Salmonella storage was on TSA. Inoculum preparation was performed as follows.
Culture plates with the skin pieces were incubated (30 min., 35° C.), and then the incubating solution was removed by aspiration. The inoculated skins were treated with 5 ml of the test solution. […] A corner of the bag was aseptically cut and the entire contents were transferred to a sterile centrifuge tube, which was then spun for 10 min (12,000 rpm, 20° C.). The pellet was resuspended in 5 ml 0.1% (w/v) peptone/water.

E. coli = experiment: Spraying whole chicken carcasses with a commercial sprayer; design: species or system Escherichia coli; conditions: for BACTERIA PRESENT, 5,000 ppm CPC: Petrifilm, spray 20 seconds at 60 psi
Method: as §2, §3, §4

C. jejuni = experiment: as above; design: species or system Campylobacter jejuni; conditions: for BACTERIA PRESENT, 5,000 ppm CPC: preexisting C. jejuni, MPN, spray 20 seconds at 60 psi
Method: as §2, §3, §4

Salmonella = experiment: Another spraying experiment on chicken carcasses; conditions: 90 second spraying of chicken carcasses with 5,000 ppm CPC
Escherichia coli O157:H7 [8] = system: Escherichia coli O157:H7; remark: listed apart in the source

CCCCCCCCCCCCCCCC[n+]1ccccc1 [CPC, cetylpyridinium chloride]
number of attached bacteria reduced to (Escherichia coli O157:H7 [1]): below 0.1% | reduction in attached bacteria (Escherichia coli O157:H7 [2]): 62-64% | reduction of attached bacteria (L. monocytogenes [3]; 50 ppm CPC): 82% | reduction of attached bacteria (L. monocytogenes [3]; 100 ppm CPC): 92% | reduction of attached bacteria (L. monocytogenes [3]; 500 and 1000 ppm CPC): 100% | CPC Vs Campylobacter Jejuni, growth in MBC test (Campylobacter jejuni; CPC 0.50 μg/mL): + | CPC Vs Campylobacter Jejuni, growth in MBC test (Campylobacter jejuni; CPC 0.98 μg/mL): + | CPC Vs Campylobacter Jejuni, growth in MBC test (Campylobacter jejuni; CPC 1.96 μg/mL): + | CPC Vs Campylobacter Jejuni, growth in MBC test (Campylobacter jejuni; CPC 3.91 μg/mL): + | CPC Vs Campylobacter Jejuni, growth in MBC test (Campylobacter jejuni; CPC 7.81 μg/mL): − | CPC Vs Campylobacter Jejuni, growth in MBC test (Campylobacter jejuni; CPC 15.63 μg/mL): − | CPC Vs Campylobacter Jejuni, growth in MBC test (Campylobacter jejuni; CPC 31.25 μg/mL): − | CPC Vs Campylobacter Jejuni, growth in MBC test (Campylobacter jejuni; CPC 62.5 μg/mL): − | CPC Vs Campylobacter Jejuni, growth in MBC test (Campylobacter jejuni; CPC 125 μg/mL): − | CPC Vs Campylobacter Jejuni, growth in MBC test (Campylobacter jejuni; CPC […]): + | CPC Vs Arcobacter Butzleri, growth in MBC test (Arcobacter butzleri; CPC 0.50 μg/mL): + | CPC Vs Arcobacter Butzleri, growth in MBC test (Arcobacter butzleri; CPC 0.98 μg/mL): + | CPC Vs Arcobacter Butzleri, growth in MBC test (Arcobacter butzleri; CPC 1.96 μg/mL): + | CPC Vs Arcobacter Butzleri, growth in MBC test (Arcobacter butzleri; CPC 3.91 μg/mL): + | CPC Vs Arcobacter Butzleri, growth in MBC test (Arcobacter butzleri; CPC 7.81 μg/mL): + | CPC Vs Arcobacter Butzleri, growth in MBC test (Arcobacter butzleri; CPC 15.63 μg/mL): + | CPC Vs Arcobacter Butzleri, growth in MBC test (Arcobacter butzleri; CPC 31.25 μg/mL): + | CPC Vs Arcobacter Butzleri, growth in MBC test (Arcobacter butzleri; CPC 62.5 μg/mL): − | CPC Vs Arcobacter Butzleri, growth in MBC test (Arcobacter butzleri; CPC 125 μg/mL): − | CPC Vs Arcobacter Butzleri, growth in MBC test (Arcobacter butzleri; CPC […]): + | reduction in L. monocytogenes (L. monocytogenes [4]): > 4 log10 | mutagenicity by the Ames assay [5]: nonmutagenic | Reduction, No Spray vs. CPC Treatment (S. typhimurium [6]; trial 1 (Dec. 02, 1996)): 1.047 Log10 CFUs | Reduction, Spray vs. CPC Treatment (S. typhimurium [6]; trial 1 (Dec. 02, 1996)): 0.744 Log10 CFUs | S. typhimurium, 5,000 ppm CPC (S. typhimurium [6]; trial 1 (Dec. 02, 1996)): 4.295 Log10 CFUs | Reduction, No Spray vs. CPC Treatment (S. typhimurium [6]; trial 2 (Dec. 09, 1996)): 3.327 Log10 CFUs | Reduction, Spray vs. CPC Treatment (S. typhimurium [6]; trial 2 (Dec. 09, 1996)): 2.955 Log10 CFUs | S. typhimurium, 5,000 ppm CPC (S. typhimurium [6]; trial 2 (Dec. 09, 1996)): 1.977 Log10 CFUs | Reduction, No Spray vs. CPC Treatment (S. typhimurium [6]; trial 3 (Dec. 16, 1996)): 2.395 Log10 CFUs | Reduction, Spray vs. CPC Treatment (S. typhimurium [6]; trial 3 (Dec. 16, 1996)): 2.548 Log10 CFUs | S. typhimurium, 5,000 ppm CPC (S. typhimurium [6]; trial 3 (Dec. 16, 1996)): 2.606 Log10 CFUs | Reduction, No Spray vs. CPC Treatment (S. typhimurium [6]; trial 4 (Jan. 27, 1997)): 3.69 Log10 CFUs | Reduction, Spray vs. CPC Treatment (S. typhimurium [6]; trial 4 (Jan. 27, 1997)): 3.45 Log10 CFUs | S. typhimurium, 5,000 ppm CPC (S. typhimurium [6]; trial 4 (Jan. 27, 1997)): 1.03 Log10 CFUs | Reduction, No Spray vs. CPC Treatment (S. typhimurium [6]; trial 5 (Feb. 03, 1997)): 2.76 Log10 CFUs | Reduction, Spray vs. CPC Treatment (S. typhimurium [6]; trial 5 (Feb. 03, 1997)): 2.79 Log10 CFUs | S. typhimurium, 5,000 ppm CPC (S. typhimurium [6]; trial 5 (Feb. 03, 1997)): 1.426 Log10 CFUs | reduction of Salmonella by CPC in the wash water (S. typhimurium [6]; wash water of the S. typhimurium runs): 1 log | decontamination (Salmonella reduction) on chicken skin (S. typhimurium [7]): ~5 log10 | Reduction in Log10 (water control vs 5,000 ppm CPC) (E. coli; Trial 1): 1.588 Log10 | BACTERIA PRESENT, 5,000 ppm CPC (E. coli; Trial 1): 0.386 | Reduction in Log10 (water control vs 5,000 ppm CPC) (E. coli; Trial 2): 0.920 Log10 | BACTERIA PRESENT, 5,000 ppm CPC (E. coli; Trial 2): 0.460 | Reduction in Log10 (water control vs 5,000 ppm CPC) (C. jejuni; Trial 1): 2.613 Log10 | BACTERIA PRESENT, 5,000 ppm CPC (C. jejuni; Trial 1): 0 | Reduction in Log10 (water control vs 5,000 ppm CPC) (C. jejuni; Trial 2): 2.014 Log10 | BACTERIA PRESENT, 5,000 ppm CPC (C. jejuni; Trial 2): 0.629 | reduction of Salmonella (Salmonella): 3.3 log10 | reduction in the number of bacteria attached to the beef (Escherichia coli O157:H7 [8]): 76%
